Measurements as given in patent publication US8426437B2, “Pyrroloquinoline derivatives and their use as protein kinases inhibitors” (Pierre Fabre Medicament, priority 2005, dated 2013).

Target: T1, RET (Homo sapiens, UniProt P07949)
T1 construct: purchased Upstate 14-570MG
Assay: Inhibition of RET kinase activity, recombinant RET method (Kinase-Glo)
Assay type: biochemical
Conditions: RET 2 μg/ml, poly-EY4 substrate, 20 μM ATP, two hours at 30° C.
Experimental: The inhibition of the kinase activity of the compounds of the invention is assessed by measuring their IC50 on RET.
where: • Y is the value of the luminescence • X is the logarithm of the concentration of the compound • Bottom is the minimum Y value • Top is the maximum Y value • LogIC50 is the value of X when Y is 50% from Top—Bottom.
The quantity of RET required is 2 μg/ml.
The following buffer is used for dilution of RET: 20 mM MOPS/NaOH pH7.0, 1 mM EDTA, 5% glycerol, 0.01% Brij35 (Sigma B4184), 0.1% 2-mercaptoethanol, 1 mg/ml BSA (Sigma A3059-10G).
The dilution of the compounds of the invention is distributed so as to obtain a scale of final concentrations between 10 nM and 30 μM.
After incubation of the reaction mixture for two hours at 30° C., the level of ATP that remains is assayed using the Kinase-Glo Luminescent Kinase Assay (Promega #V6712) according to the conditions recommended by the supplier. The luminescence induced is read in a plate reader (Envision-Perkin Elmer).

T1 sequence (P07949 29-1114): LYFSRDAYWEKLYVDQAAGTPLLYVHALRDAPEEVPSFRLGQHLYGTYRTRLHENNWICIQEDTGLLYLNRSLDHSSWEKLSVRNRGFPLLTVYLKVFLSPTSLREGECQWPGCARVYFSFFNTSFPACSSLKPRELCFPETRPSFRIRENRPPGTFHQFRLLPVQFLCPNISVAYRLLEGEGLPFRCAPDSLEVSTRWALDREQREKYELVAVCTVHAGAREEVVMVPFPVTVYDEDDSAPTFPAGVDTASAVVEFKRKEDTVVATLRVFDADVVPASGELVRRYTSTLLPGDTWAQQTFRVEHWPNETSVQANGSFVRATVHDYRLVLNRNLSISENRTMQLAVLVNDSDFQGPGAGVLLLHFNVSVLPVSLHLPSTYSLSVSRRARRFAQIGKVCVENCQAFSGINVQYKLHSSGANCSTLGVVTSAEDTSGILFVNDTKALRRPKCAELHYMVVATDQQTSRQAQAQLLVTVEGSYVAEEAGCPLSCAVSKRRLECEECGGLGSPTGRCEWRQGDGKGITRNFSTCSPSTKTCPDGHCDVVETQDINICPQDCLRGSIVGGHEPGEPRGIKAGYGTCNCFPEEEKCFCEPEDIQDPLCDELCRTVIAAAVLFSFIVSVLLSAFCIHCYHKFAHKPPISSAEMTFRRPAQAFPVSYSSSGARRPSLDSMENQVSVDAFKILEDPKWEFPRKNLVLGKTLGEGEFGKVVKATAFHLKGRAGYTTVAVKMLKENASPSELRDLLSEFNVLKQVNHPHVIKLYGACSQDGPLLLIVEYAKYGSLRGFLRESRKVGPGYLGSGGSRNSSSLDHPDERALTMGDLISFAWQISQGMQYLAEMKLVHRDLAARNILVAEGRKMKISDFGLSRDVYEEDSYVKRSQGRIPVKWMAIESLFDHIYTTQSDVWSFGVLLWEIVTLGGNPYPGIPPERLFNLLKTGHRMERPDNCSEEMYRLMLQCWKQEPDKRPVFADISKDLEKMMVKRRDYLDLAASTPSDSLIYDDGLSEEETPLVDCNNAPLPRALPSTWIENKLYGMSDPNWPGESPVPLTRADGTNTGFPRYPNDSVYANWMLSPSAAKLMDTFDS

Structure (SMILES) | IC50 [nM]
CCOC(=O)c1c[nH]c2c(=O)[nH]c3ccc(C#CCN(C)C)cc3c12 [Compound 203, 8-(3-Dimethylamino-prop-1-ynyl)-4-oxo-4,5-dihydro-3H-pyrrolo[2,3-c]quinoline-1-ethyl carboxylate] | 100 to 1000
CCOC(=O)CCNS(=O)(=O)c1ccc2[nH]c(=O)c3[nH]cc(C(=O)OCC)c3c2c1 [Compound 29, 8-(2-Ethoxycarbonyl-ethylsulfamoyl)-4-oxo-4,5-dihydro-3H-pyrrolo[2,3-c]quinoline-1-ethyl carboxylate] | 1000 to 10000
CN(C)C(=O)c1c[nH]c2c(=O)[nH]c3ccccc3c12 [Compound 89, N,N-(Dimethyl)-4-oxo-4,5-dihydro-3H-pyrrolo[2,3-c]quinoline-1-carboxamide] | 10000 to 100000
CCCOC(=O)c1c[nH]c2c(=O)[nH]c3ccc(S(=O)(=O)N(C[C@H](C)NC(=O)OC(C)(C)C)C4CC4)cc3c12 [Compound 152, (S)-8-[(2-tert-Butoxycarbonylamino-propyl)-cyclopropyl-sulfamoyl]-4-oxo-4,5-dihydro-3H-pyrrolo[2,3-c]quinoline 1-propyl carboxylate] | 100 to 1000
CCOC(=O)c1c[nH]c2c(=O)[nH]c3ccc(-c4csc(Nc5c(Cl)cccc5Cl)n4)cc3c12 [Compound 274, 8-[2-(2,6-Dichlorophenylamino)-thiazol-4-yl]-4-oxo-4,5-dihydro-3H-pyrrolo[2,3-c]quinoline-1-ethyl carboxylate] | 10000 to 100000
C#CCN(C[C@@H]1CCCN1C)S(=O)(=O)c1ccc2[nH]c(=O)c3[nH]cc(C(=O)OCCC)c3c2c1 [Compound 151, (S)-8-[(1-Methyl-pyrrolidin-2-ylmethyl)-prop-2-ynyl-sulfamoyl]-4-oxo-4,5-dihydro-3H-pyrrolo[2,3-c]quinoline-1-propyl carboxylate] | 100 to 1000
CN(C)CCCNC(=O)c1c[nH]c2c(=O)[nH]c3ccccc3c12 [Compound 80, N-(3-Dimethylamino-propyl)-4-oxo-4,5-dihydro-3H-pyrrolo[2,3-c]quinoline-1-carboxamide] | 10000 to 100000
CN(c1ccc(F)cc1)S(=O)(=O)c1ccc2[nH]c(=O)c3[nH]cc(C(=O)OCCNC(=O)OC(C)(C)C)c3c2c1 [Compound 106, 2-tert-Butoxycarbonylaminoethyl 8-[(4-fluorophenyl)-methyl-sulfamoyl]-4-oxo-4,5-dihydro-3H-pyrrolo[2,3-c]quinoline-1-carboxylate] | 10000 to 100000
CCOC(=O)c1c[nH]c2c(=O)[nH]c3ccc(Sc4ccc(NC(C)=O)cc4)cc3c12 [Compound 223, 8-(4-Acetylaminophenylsulfanyl)-4-oxo-4,5-dihydro-3H-pyrrolo[2,3-c]quinoline-1-ethyl carboxylate] | 100 to 1000
CCCOC(=O)c1c[nH]c2c(=O)[nH]c3cc(F)c(S(=O)(=O)N(C)C4CC4)cc3c12 [Compound 187, 8-(Cyclopropyl-methyl-sulfamoyl)-7-fluoro-4-oxo-4,5-dihydro-3H-pyrrolo[2,3-c]quinoline-1-propyl carboxylate] | 100 to 1000
CCCOC(=O)c1c[nH]c2c(=O)[nH]c3ccc(S(=O)(=O)N4CCC(N(C)C(=O)OC(C)(C)C)C4)cc3c12 (stereo not drawn) [Compound 169, 8-[3-(tert-Butoxycarbonyl-methyl-amino)-pyrrolidine-1-sulfonyl]-4-oxo-4,5-dihydro-3H-pyrrolo[2,3-c]quinoline-1-propyl carboxylate] | 1000 to 10000
CCOC(=O)c1c[nH]c2c(=O)[nH]c3ccc(-c4csc(C)n4)cc3c12 [Compound 278, 8-(2-Methyl-thiazol-4-yl)-4-oxo-4,5-dihydro-3H-pyrrolo[2,3-c]quinoline-1-ethyl carboxylate] | 1000 to 10000
CCOC(=O)c1c[nH]c2c(=O)[nH]c3ccc(-c4csc(Nc5ccc(Cl)c(Cl)c5)n4)cc3c12 [Compound 273, 8-[2-(3,4-Dichlorophenylamino)-thiazol-4-yl]-4-oxo-4,5-dihydro-3H-pyrrolo[2,3-c]quinoline-1-ethyl carboxylate] | 1000 to 10000
CCOC(=O)c1c[nH]c2c(=O)[nH]c3cc(F)ccc3c12 [Compound 215, 7-Fluoro-4-oxo-4,5-dihydro-3H-pyrrolo[2,3-c]quinoline-1-ethyl carboxylate] | 1000 to 10000
CCCOC(=O)c1c[nH]c2c(=O)[nH]c3cc(F)c(S(=O)(=O)N(C)C)cc3c12 [Compound 186, 8-Dimethylsulfamoyl-7-fluoro-4-oxo-4,5-dihydro-3H-pyrrolo[2,3-c]quinoline-1-propyl carboxylate] | 100 to 1000
O=C(OCc1ccccc1)c1c[nH]c2c(=O)[nH]c3ccccc3c12 [Compound 74, 4-Oxo-4,5-dihydro-3H-pyrrolo[2,3-c]quinoline-1-carboxylate benzyl] | 1000 to 10000
NC(=O)c1c[nH]c2c(=O)[nH]c3ccccc3c12 [Compound 90, 4-Oxo-4,5-dihydro-3H-pyrrolo[2,3-c]quinoline-1-carboxamide] | 10000 to 100000
CCCOC(=O)c1c[nH]c2c(=O)[nH]c3cc(Cl)c(S(=O)(=O)N(C)C)cc3c12 [Compound 189, 7-Chloro-8-dimethylsulfamoyl-4-oxo-4,5-dihydro-3H-pyrrolo[2,3-c]quinoline-1-propyl carboxylate] | 100 to 1000
O=C(NCc1ccncc1)c1c[nH]c2c(=O)[nH]c3ccccc3c12 [Compound 86, N-(Pyridin-4-ylmethyl)-4-oxo-4,5-dihydro-3H-pyrrolo[2,3-c]quinoline-1-carboxamide] | 10000 to 100000
CCCOC(=O)c1c[nH]c2c(=O)[nH]c3ccc(S(=O)(=O)N(C)CCC#N)cc3c12 [Compound 126, 8-[(2-Cyano-ethyl)-methyl-sulfamoyl]-4-oxo-4,5-dihydro-3H-pyrrolo[2,3-c]quinoline-1-propyl carboxylate] | 100 to 1000
CCOC(=O)/C=C/c1ccc2[nH]c(=O)c3[nH]cc(C(=O)OCC)c3c2c1 [Compound 65, 8-(2-Ethoxycarbonyl-vinyl)-4-oxo-4,5-dihydro-3H-pyrrolo[2,3-c]quinoline-1-ethyl carboxylate] | 1000 to 10000

Continued, values first:

IC50 [nM] | Structure (SMILES)
1000 to 10000 | CCOC(=O)c1c[nH]c2c(=O)[nH]c3ccc(NS(=O)(=O)c4ccc(NC(C)=O)cc4)cc3c12 [Compound 52, 8-(4-Acetylamino-benzenesulfonylamino)-4-oxo-4,5-dihydro-3H-pyrrolo[2,3-c]quinoline-1-ethyl carboxylate]
1000 to 10000 | CCOC(=O)c1c[nH]c2c(=O)[nH]c3ccc(NC(=O)c4ccccc4)cc3c12 [Compound 60, 8-Benzoylamino-4-oxo-4,5-dihydro-3H-pyrrolo[2,3-c]quinoline-1-ethyl carboxylate]
< 100 | CCCOC(=O)c1c[nH]c2c(=O)[nH]c3ccc(S(=O)(=O)N(CCO)C4CC4)cc3c12 [Compound 174, 8-[Cyclopropyl-(2-hydroxy-ethyl)-sulfamoyl]-4-oxo-4,5-dihydro-3H-pyrrolo[2,3-c]quinoline-1-propyl carboxylate]
10000 to 100000 | CN(c1ccc(F)cc1)S(=O)(=O)c1ccc2[nH]c(=O)c3[nH]cc(C(=O)O)c3c2c1 [Compound 103, 8-[(4-Fluorophenyl)-methyl-sulfamoyl]-4-oxo-4,5-dihydro-3H-pyrrolo[2,3-c]quinoline-1-carboxylic acid]
< 100 | CCOC(=O)c1c[nH]c2c(=O)[nH]c3ccc(S(=O)(=O)Nc4ccc(F)c(F)c4)cc3c12 [Compound 18, 8-(3,4-Difluorophenylsulfamoyl)-4-oxo-4,5-dihydro-3H-pyrrolo[2,3-c]quinoline-1-ethyl carboxylate]
100 to 1000 | CS(=O)(=O)c1cccc(-c2ccc3[nH]c(=O)c4[nH]cc(C(=O)OC5CCCC5)c4c3c2)c1 [Compound 256, 8-(3-Methanesulfonyl-phenyl)-4-oxo-4,5-dihydro-3H-pyrrolo[2,3-c]quinoline-1-cyclopentyl carboxylate]
1000 to 10000 | COC(=O)c1c[nH]c2c(=O)[nH]c3ccc(S(=O)(=O)NN4CC5CCCC5C4)cc3c12 (stereo not drawn) [Compound 192, 8-(Hexahydro-cyclopenta[c]pyrrol-2-ylsulfamoyl)-4-oxo-4,5-dihydro-3H-pyrrolo[2,3-c]quinoline-1-methyl carboxylate]
100 to 1000 | CCOC(=O)c1c[nH]c2c(=O)[nH]c3ccc(-c4csc(NC(=O)C5CC5)n4)cc3c12 [Compound 275, 8-[2-(Cyclopropanecarbonyl-amino)-thiazol-4-yl]-4-oxo-4,5-dihydro-3H-pyrrolo[2,3-c]quinoline-1-ethyl carboxylate]
100 to 1000 | CCOC(=O)c1c[nH]c2c(=O)[nH]c3ccc(S(=O)(=O)NC4CCCCCC4)cc3c12 [Compound 31, 8-Cycloheptylsulfamoyl-4-oxo-4,5-dihydro-3H-pyrrolo[2,3-c]quinoline-1-ethyl carboxylate]
100 to 1000 | CCOC(=O)c1c[nH]c2c(=O)[nH]c3ccc(NS(=O)(=O)c4ccc(Cl)cc4)cc3c12 [Compound 40, 8-(4-Chloro-benzenesulfonylamino)-4-oxo-4,5-dihydro-3H-pyrrolo[2,3-c]quinoline-1-ethyl carboxylate]
100 to 1000 | CCCOC(=O)c1c[nH]c2c(=O)[nH]c3ccc(S(=O)(=O)NC4CC4)cc3c12 [Compound 124, 8-Cyclopropylsulfamoyl-4-oxo-4,5-dihydro-3H-pyrrolo[2,3-c]quinoline-1-propyl carboxylate]
100 to 1000 | CCCOC(=O)c1c[nH]c2c(=O)[nH]c3ccc(S(=O)(=O)N4CCCC(C(N)=O)C4)cc3c12 (stereo not drawn) [Compound 179, 8-(3-Carbamoyl-piperidine-1-sulfonyl)-4-oxo-4,5-dihydro-3H-pyrrolo[2,3-c]quinoline-1-propyl carboxylate]
